Measurements taken from patent US6420423B1 (priority 1995, dated 2002).

Key:
Phytophthora infestans = format: in vivo; conditions: 20 ppm of the active substance; test a) or b) not distinguished
Plasmopara viticola = conditions: 20 ppm of the active substance, vines

| SMILES | melting point | suppression of infestation (Phytophthora infestans) | curative action (Plasmopara viticola) |
| --- | --- | --- | --- |
| CCO/N=C(/C(C)=NOCc1ccccc1C(=NOC)C(=O)OC)c1ccc(OCc2cccc(C(F)(F)F)c2)cc1 | 68 to 70 °C | – | – |
| CCCCOc1ccc(C(=NOC)C(C)=NOCc2ccccc2C(=COC)C(=O)OC)cc1 (mixture of isomers) [Compound 1.33] | – | completely suppressed | complete curative action |
| COC=C(C(=O)OC)c1ccccc1CON=C(C)C(=NOC)c1ccc(OCC2CC2(Cl)Cl)c(F)c1 (single isomer, unassigned) [Compound 1.4] | – | completely suppressed | complete curative action |
| COC=C(C(=O)OC)c1ccccc1CON=C(C)C(=NOC)c1ccc(OCC2CC2(Cl)Cl)c(Cl)c1 (single isomer, unassigned) [Compound 1.19] | – | completely suppressed | – |
| COC=C(C(=O)OC)c1ccccc1CON=C(C)C(=NOC)c1ccc(OCC2CC2(Cl)Cl)c(Cl)c1 (single isomer, unassigned) [Compound 1.20] | – | completely suppressed | – |
| CCC(C)Oc1ccc(C(=NOC)C(C)=NOCc2ccccc2C(=COC)C(=O)OC)cc1 (single isomer, unassigned) [Compound 1.29] | – | – | complete curative action |
| CCC(C)Oc1ccc(C(=NOC)C(C)=NOCc2ccccc2C(=COC)C(=O)OC)cc1 (single isomer, unassigned) [Compound 1.30] | – | completely suppressed | complete curative action |
| COC=C(C(=O)OC)c1ccccc1CON=C(C)C(=NOC)c1cc(F)ccc1C (single isomer, unassigned) [Compound 1.52] | – | – | complete curative action |
| CCCOc1ccc(C(=NOC)C(C)=NOCc2ccccc2C(=COC)C(=O)OC)c(F)c1 (single isomer, unassigned) [Compound 1.63B] | – | – | complete curative action |
| CCCCOc1ccc(C(=NOC)C(C)=NOCc2ccccc2C(=COC)C(=O)OC)c(F)c1 (single isomer, unassigned) [Compound 1.71A] | – | – | complete curative action |
| CCCCOc1ccc(C(=NOC)C(C)=NOCc2ccccc2C(=COC)C(=O)OC)c(F)c1 (single isomer, unassigned) [Compound 1.71B] | – | – | complete curative action |
| COC=C(C(=O)OC)c1ccccc1CON=C(C)C(=NOC)c1ccc(OC(C)C)cc1F (single isomer, unassigned) [Compound 1.73A] | – | – | complete curative action |
| COC=C(C(=O)OC)c1ccccc1CON=C(C)C(=NOC)c1ccc(OC(C)C)cc1F (single isomer, unassigned) [Compound 1.73B] | – | – | complete curative action |
| CCC(C)Oc1ccc(C(=NOC)C(C)=NOCc2ccccc2C(=COC)C(=O)OC)c(F)c1 (single isomer, unassigned) [Compound 1.75A] | – | completely suppressed | – |
| COC=C(C(=O)OC)c1ccccc1CON=C(C)C(=NOC)c1ccc(OC)cc1C (single isomer, unassigned) [Compound 1.78] | – | – | complete curative action |
| COC=C(C(=O)OC)c1ccccc1CON=C(C)C(=NOC)c1ccc(OCC2CC2(Cl)Cl)c(F)c1 (stereo not drawn) [Compound 1.3, (2-{2-[4-(2,2-Dichloro-cyclopropylmethoxy)-3-fluoro-phenyl]-2-methoxyimino-1-methyl-ethylideneaminooxymethyl}phenyl)-3-methoxy-acrylic acid methyl ester] | – | completely suppressed | complete curative action |
| COC=C(C(=O)OC)c1ccccc1CON=C(C)C(=NOC)c1cc(F)c(OCC2CC2(Cl)Cl)cc1F (stereo not drawn) [Compound 1.13, (2-{2-[4-(2,2-Dichloro-cyclopropylmethoxy)-2,5-difluoro-phenyl]-2-methoxyimino-1-methyl-ethylideneaminooxymethyl}-phenyl)-3-methoxy-acrylic acid methyl ester] | – | completely suppressed | complete curative action |
| COC=C(C(=O)OC)c1ccccc1CON=C(C)C(=NOC)c1ccc(OCC(C)C)cc1 [Compound 1.31, {2-[2-(4-Isobutoxy-phenyl)-2-methoxyimino-1-methyl-ethylideneaminooxymethyl]-phenyl}-3-methoxy-acrylic acid methyl ester] | – | completely suppressed | complete curative action |
| CCC(C)Oc1ccc(C(=NOC)C(C)=NOCc2ccccc2C(=NOC)C(=O)OC)cc1 (stereo not drawn) [Compound 2.21] | – | – | complete curative action |

| SMILES | melting point | suppression of infestation (Phytophthora infestans) | curative action (Plasmopara viticola) |
| --- | --- | --- | --- |
| CON=C(C(C)=NOCc1ccccc1C(=NOC)C(=O)OC)c1ccc(OCC(C)C)cc1 [Compound 2.22] | – | – | complete curative action |
| CON=C(C(C)=NOCc1ccccc1C(=NOC)C(=O)OC)c1ccc(Oc2cccc(Br)c2)cc1 [Compound 2.25] | – | – | complete curative action |
| CON=C(C(C)=NOCc1ccccc1C(=NOC)C(=O)OC)c1ccc(Oc2ccc(C)cc2)cc1 [Compound 2.27] | – | completely suppressed | complete curative action |
| CON=C(C(C)=NOCc1ccccc1C(=NOC)C(=O)OC)c1cccc(Oc2cccc(F)c2)c1 [Compound 2.32] | – | completely suppressed | – |
| CON=C(C(C)=NOCc1ccccc1C(=NOC)C(=O)OC)c1ccc(OC[Si](C)(C)C)cc1 [Compound 2.33] | – | – | complete curative action |
| CCCOc1ccc(C(=NOC)C(C)=NOCc2ccccc2C(=NOC)C(=O)OC)c(F)c1 [Compound 2.45, 2-Methoxyimino-(2-{2-methoxyimino-1-methyl-2-[2-fluoro-4-n-propoxy-phenyl]-ethylideneaminooxymethyl}-phenyl)-acetic acid methyl ester] | – | – | complete curative action |
| CCOc1ccc(C(=NOC)C(C)=NOCc2ccccc2C(=NOC)C(=O)OC)c(F)c1 [Compound 2.49, 2-Methoxyimino-(2-{2-methoxyimino-1-methyl-2-[2-fluoro-4-ethoxy-phenyl]-ethylideneaminooxymethyl}-phenyl)-acetic acid methyl ester] | – | – | complete curative action |
| CCC(C)Oc1ccc(C(=NOC)C(C)=NOCc2ccccc2C(=NOC)C(=O)OC)c(F)c1 (stereo not drawn) [Compound 2.55] | – | completely suppressed | complete curative action |
| CON=C(C(C)=NOCc1ccccc1C(=NOC)C(=O)OC)c1ccc(OC)cc1C [Compound 2.58] | – | completely suppressed | complete curative action |
| CCC(C)Oc1ccc(C(=NOC)C(C)=NOCc2ccccc2C(=NOC)C(=O)NC)cc1 (stereo not drawn) [Compound 3.21] | – | – | complete curative action |
| CNC(=O)C(=NOC)c1ccccc1CON=C(C)C(=NOC)c1ccc(OCC(F)(F)F)cc1 [Compound 3.43] | – | – | complete curative action |
| CCCOc1ccc(C(=NOC)C(C)=NOCc2ccccc2C(=NOC)C(=O)NC)c(F)c1 [Compound 3.46, 2-Methoxyimino-2-(2-{2-methoxyimino-1-methyl-2-[2-fluoro-4-n-propoxy-phenyl]-ethylideneaminooxymethyl}-phenyl)-N-methyl-acetamide] | – | – | complete curative action |
| CCC(C)Oc1ccc(C(=NOC)C(C)=NOCc2ccccc2C(=NOC)C(=O)NC)c(F)c1 (stereo not drawn) [Compound 3.56] | – | completely suppressed | complete curative action |
| CCOc1ccc(C(=NOC)C(C)=NOCc2ccccc2C(=NOC)C(=O)NC)c(C)c1 [Compound 3.60, 2-Methoxyimino-2-(2-{2-methoxyimino-1-methyl-2-[4-ethoxy-2-methyl-phenyl]-ethylideneaminooxymethyl}-phenyl)-N-methyl-acetamide] | – | completely suppressed | – |
| COC=C(C(=O)OC)c1ccccc1CON=C(C)C(=NOCC=C(Cl)Cl)c1ccc(OC)cc1 [Compound 4.3] | – | completely suppressed | complete curative action |
| CCCOc1ccc(C(=NOCC)C(C)=NOCc2ccccc2C(=COC)C(=O)OC)cc1 [Compound 4.57] | – | completely suppressed | complete curative action |
| CCCOc1ccc(C(=NOCC)C(C)=NOCc2ccccc2C(=NOC)C(=O)OC)cc1 [Compound 4.58] | – | – | complete curative action |
| CCCON=C(C(C)=NOCc1ccccc1C(=COC)C(=O)OC)c1ccc(OCCC)cc1 [Compound 4.60] | – | completely suppressed | complete curative action |
| C#CCON=C(C(C)=NOCc1ccccc1C(=NOC)C(=O)NC)c1ccc(OCCC)cc1 [Compound 4.65] | – | – | complete curative action |
